# Source: PMC12562276, “Effects of Intramuscular Vasopressin on Pharmacokinetics and Pharmacodynamics in Healthy Neonatal Piglets: A Dose–Response Study” (Children, 2025)
# Like-named read-outs stand apart in the source and are kept apart here.
# Columns and labels:
# [1] = tested on: dogs; details: IV vasopressin, cited from earlier work
# From the text: In the current study, we determined the optimal IM vasopressin dose to be 8 IU/kg, as there were significant changes in hemodynamics and left ventricular contractile function following its administration, while there were little to no hemodynamic changes following 4 IU/kg IM vasopressin administration. […] Even if IV access can be achieved before two minutes, IV concentra ...
# [2] = tested on: healthy neonatal piglets; experiment: Autopsy of IM injection sites for local tissue damage; format: in vivo; details: autopsies post-euthanasia; IM 4 or 8 IU/kg, left inner thigh muscle
# Experimental: (§1) Following surgical instrumentation and stabilization, a consecutively numbered, sealed brown envelope containing the group allocation was opened (Figure 1). Piglets were randomized into three groups: 0.4 IU/kg IV vasopressin 4 IU/kg IM vasopressin, or 8 IU/kg IM vasopressin. Piglets that were randomized to “IM” were administered one dose intramuscularly in the left inner thigh muscle while piglets randomized to “IV” were administered one dose via the femoral venous catheter followed with a 3 mL normal saline bolus. Arterial blood was collected before drug administration (baseline = time point “0 min”), 1, 2, 3, 4, 5, and 10 min after drug administration. Following final collection of blood, piglets were euthanized with an intravenous overdose of sodium pentobarbital and autopsies of IM injection sites were conducted to assess local tissue damage […].
# [3] = tested on: healthy neonatal piglets; experiment: Hemodynamic and cardiac function parameters after IV or IM vasopressin; format: in vivo; details: for Changes in hemodynamic parameters: n = 5
# Experimental: Piglets were instrumented as previously described with modifications. Following induction of anesthesia using isoflurane, piglets underwent a tracheostomy for intubation. Pressure-controlled ventilation (Sechrist Infant Ventilator Model IV-100; Sechrist Industries, Anaheim, CA, USA) was commenced at a respiratory rate of 16–20 breaths/min and pressure of 20/5 cmH2O. Oxygen saturation was maintained within 90–100%, while glucose was provided via an IV infusion of 5% dextrose at 10 mL/kg/hr. IV propofol (5–10 mg/kg/h) and morphine (0.1 mg/kg/h) were provided to maintain anaesthesia, and additional IV doses of propofol (1–2 mg/kg) and morphine (0.05–0.1 mg/kg) were administered as needed (i.e., to maintain adequate sedation/pain medication as determined by movement/pain response). Piglets’ normothermic body temperature of 38.5–39.5 °C was maintained with a heating pad and overhead warmer.
# 5-French Argyle® (Klein-Baker Medical Inc. San Antonio, TX, USA) double-lumen and single-lumen catheters were inserted via the right femoral vein and artery, respectively. The femoral venous catheter was used for administration of fluids and medications and the arterial catheter for continuous arterial blood pressure monitoring in addition to arterial blood gas measurements. A real-time ultrasonic flow probe (2 mm; Transonic Systems Inc., Ithica, NY, USA) encircled the right common carotid artery to measure cerebral blood flow. A Millar® catheter (MPVS Ultra1, ADInstruments, Houston, TX, USA) was inserted into the left ventricle via the left common carotid artery for continuous measurement of stroke volume, ejection fraction, end-diastolic and -systolic volumes, left ventricular pressure, and left ventricular contractile function (dP/dtmax, dP/dtmin).
# Following surgical instrumentation, piglets were placed in the supine position and allowed to recover from surgical instrumentation until baseline hemodynamic measures were stable (minimum one hour). Ventilator rate was adjusted to maintain the partial arterial CO2 between 35–45 mmHg, as determined by periodic arterial blood gas analysis. A Hewlett Packard 78833B monitor (Hewlett Packard Co., Palo Alto, CA, USA) was used for the continuous measurement of heart rate, mean systemic arterial pressure (MAP), systemic systolic and diastolic arterial pressure, and percutaneous oxygen saturation throughout the experiment.
# Cerebral oxygenation (crSO2) was measured using the Invos^TM Cerebral/Somatic Oximeter Monitor (Invos 5100, Somanetics Corp., Troy, MI, USA), which calculates crSO2 and expresses values as the percentage of oxygenated haemoglobin (oxygenated haemoglobin/total haemoglobin). The sensors were placed on the right forehead of the piglet and secured with wrap and tape. A slim cap provided light shielding. Regional oxygen saturation values were recorded every second at a sample rate of […].
# as §1
# Demographics of study piglets were recorded. […]
# [4] = tested on: isolated working rat heart; details: during normoxia (not during hypoxia); cited from earlier work
# From the text: Through its vasoconstrictor effects, vasopressin increases SVR, thereby increasing arterial blood pressure. […] In an anesthetized open-chest dog model, Nakano administered various doses of vasopressin and reported a dose-related relationship between increasing doses and r ...
# [5] = Plasma vasopressin concentrations and pharmacokinetics after IV or IM vasopressin; format: in vivo, neonatal piglets; details: for level at 1 min / level at 5 min / level at 10 min / AUC(0-t): pig, plasma, n = 5/group, median (IQR); for level at 1 min: 1 min after administration; for level at 1 min / level at 5 min / level at 10 min: arterial blood, read-out: Plasma vasopressin concentration; for level at 5 min: 5 min after administration; for level at 10 min: 10 min after administration; for AUC(0-t): neonatal piglets, read-out: Area under the curve from baseline to 10 min (AUC0–10) (converted)
# Experimental: as §1
# Demographics of study piglets were recorded. Transonic flow probes, heart rate, and pressure transducer outputs, and Millar catheter were digitized and recorded with LabChart® 8.1.30, programming software (ADInstruments, Houston, TX, USA). Plasma vasopressin concentrations and pharmacokinetic parameters were quantified and analyzed as previously described. Reported plasma vasopressin concentrations only represent exogenous arginine vasopressin. Since pigs produce lysine vasopressin, endogenous vasopressin concentrations could not be quantified.
# The data are presented as mean (standard deviation—SD) for normally distributed continuous variables and median (interquartile range—IQR) when the distribution was skewed. The data was tested for normality (Shapiro–Wilk and Kolmogorov–Smirnov test) and compared using either Student’s t-test (data normally distributed), Rank Sum if data were skewed, one- and two-way ANOVA with Dunnett post-test, or Fisher’s exact test for categorical variables. Both Hedges’ g and Cliff’s delta (δ) were reported as standardized measures of effect size as appropriate for parametric and non-parametric data, respectively. Pearson or Spearman’s correlations were reported for parametric or non-parametric data, respectively. p-values are 2-sided and p < 0.05 was considered statistically significant. Statistical analyses were performed with SigmaPlot (Systat Software Inc., San Jose, CA, USA) and R version 4.3.2.
# [6] = 0.4 IU/kg IV, anesthetized piglets
# [7] = 8 IU/kg IM, anesthetized piglets
compound,measurement,setting,value
"NC(=O)CC[C@@H]1NC(=O)[C@H](Cc2ccccc2)NC(=O)[C@H](Cc2ccc(O)cc2)NC(=O)[C@@H](N)CSSC[C@@H](C(=O)N2CCC[C@H]2C(=O)N[C@@H](CCCN=C(N)N)C(=O)NCC(N)=O)NC(=O)[C@H](CC(N)=O)NC1=O [vasopressin, arginine vasopressin]",Decrease in cardiac output,[1]; baroreceptor-denervated dogs,−22.8 (3.0) mL/kg min
same,Decrease in heart rate,[1]; baroreceptor-denervated dogs,−10 (5) beats/minute
same,Decrease in cardiac output,[1]; healthy dogs,−39.2 (3.8) mL/kg min
same,Decrease in heart rate,[1]; healthy dogs,−22 (4) beats/minute
same,Local tissue damage at the IM injection sites,[2],did not reveal any significant local tissue damage
same,Brain oxygen saturation compared to baseline,[3]; 0.4 IU/kg IV,Significantly lower
same,dP/dtmin,[3]; 0.4 IU/kg IV,no significant changes
same,"Stroke volume, cardiac output and ejection fraction","[3]; 0.4 IU/kg IV, 1–3 min after administration",significantly lower
same,Stroke volume and cardiac output,"[3]; 0.4 IU/kg IV, one minute after administration",significantly lower
same,Carotid blood flow compared with 8 IU/kg IM,"[3]; 0.4 IU/kg IV, throughout the experimental period, p = 0.032",much lower
same,Changes in hemodynamic parameters,[3]; 4 IU/kg IM,failed to produce significant changes
same,dP/dtmax (left ventricular contractile function),[3]; 8 IU/kg IM,significantly reduced
same,dP/dtmin,[3]; 8 IU/kg IM,no significant changes
same,Changes in hemodynamic parameters,[3]; 8 IU/kg IM,induced significant hemodynamic changes
same,"MAP, systolic and diastolic pressure","[3]; 8 IU/kg IM, vs baseline",significant increases
same,dP/dtmax,[4],significantly decreased
same,Plasma concentrations compared with IV vasopressin,"[5]; 4 IU/kg IM vs 0.4 IU/kg IV, p < 0.001",significantly lower
same,Plasma concentrations compared with IV vasopressin,"[5]; 8 IU/kg IM, two minutes after administration",comparable to IV vasopressin
same,level at 1 min,[5]; [6],2.2 ng/mL
same,level at 5 min,[5]; [6],1.74 ng/mL
same,level at 10 min,[5]; [6],1.34 ng/mL
same,AUC(0-t),[5]; 0.4 IU/kg IV,0.266 ng·h/mL
same,AUC(0-t),[5]; 4 IU/kg IM,0.155 ng·h/mL
same,level at 1 min,"[5]; 8 IU/kg IM, anesthetized piglets 1–3 days old, exogenous arginine vasopressin only",0.39 ng/mL
same,level at 5 min,[5]; [7],2.64 ng/mL
same,level at 10 min,[5]; [7],2.83 ng/mL
same,AUC(0-t),[5]; 8 IU/kg IM,0.339 ng·h/mL
